Assays:
[1] = target: T1, human recombinant HDAC1 (Homo sapiens, UniProt Q13547); experiment: HDAC1 enzyme activity inhibition (HDAC Fluorimetric Drug Discovery Kit); type: biochemical; settings: human recombinant HDAC1; IC50 calculated with GraphPad Prism; read-out: HDAC1
T1 construct: purchased Enzo Life Science, Inc. BML-SE456
Method in brief: (§1)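 Fluorimetric deacetylase read-out. 5-fold compound dilutions; […] enzyme, 10 μM substrate; 30° C, 60 min; developer 30 min.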

[2] = target: T2, human recombinant HDAC6 (Homo sapiens, UniProt Q9UBN7); experiment: HDAC6 enzyme activity inhibition (HDAC Fluorimetric Drug Discovery Kit); type: biochemical; settings: for HDAC6 selectivity (fold): HDAC1 IC50 / HDAC6 IC50; for IC50: human recombinant HDAC6, IC50 calculated with GraphPad Prism
T2 construct: purchased Calbiochem Inc. 382180
T2 sequence (Q9UBN7 1-1215): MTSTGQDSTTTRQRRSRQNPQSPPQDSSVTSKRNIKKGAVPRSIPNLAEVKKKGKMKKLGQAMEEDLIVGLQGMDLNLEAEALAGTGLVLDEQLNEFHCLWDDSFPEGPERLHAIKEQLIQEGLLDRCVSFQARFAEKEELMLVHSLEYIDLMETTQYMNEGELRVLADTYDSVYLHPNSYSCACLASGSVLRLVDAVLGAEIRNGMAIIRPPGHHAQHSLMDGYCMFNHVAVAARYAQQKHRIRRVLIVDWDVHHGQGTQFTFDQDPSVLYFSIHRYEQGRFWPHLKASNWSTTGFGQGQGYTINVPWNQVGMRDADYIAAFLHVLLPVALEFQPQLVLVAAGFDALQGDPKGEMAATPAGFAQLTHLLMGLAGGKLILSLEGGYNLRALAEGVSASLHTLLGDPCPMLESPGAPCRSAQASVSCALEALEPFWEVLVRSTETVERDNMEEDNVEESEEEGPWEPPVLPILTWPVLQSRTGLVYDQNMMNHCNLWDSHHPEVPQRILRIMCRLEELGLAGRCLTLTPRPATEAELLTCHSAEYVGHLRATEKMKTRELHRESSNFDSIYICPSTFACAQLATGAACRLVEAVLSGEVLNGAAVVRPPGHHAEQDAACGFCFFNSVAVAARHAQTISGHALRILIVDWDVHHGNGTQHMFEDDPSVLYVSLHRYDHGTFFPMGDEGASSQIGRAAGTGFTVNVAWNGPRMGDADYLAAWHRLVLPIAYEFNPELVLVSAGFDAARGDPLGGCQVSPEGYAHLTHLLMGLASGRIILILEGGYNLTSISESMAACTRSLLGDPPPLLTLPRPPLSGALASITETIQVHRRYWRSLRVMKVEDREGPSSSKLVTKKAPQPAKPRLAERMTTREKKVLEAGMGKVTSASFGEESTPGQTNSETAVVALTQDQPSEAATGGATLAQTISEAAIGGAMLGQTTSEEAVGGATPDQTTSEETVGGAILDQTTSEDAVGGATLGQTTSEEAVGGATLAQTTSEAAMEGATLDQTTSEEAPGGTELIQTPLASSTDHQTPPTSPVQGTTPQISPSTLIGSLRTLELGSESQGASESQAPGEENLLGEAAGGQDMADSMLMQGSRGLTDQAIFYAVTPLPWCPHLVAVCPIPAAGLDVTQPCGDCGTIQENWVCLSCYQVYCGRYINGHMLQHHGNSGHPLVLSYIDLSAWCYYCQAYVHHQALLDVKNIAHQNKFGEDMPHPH
Method in brief: as §1

T1 sequence (Q13547 whole entry): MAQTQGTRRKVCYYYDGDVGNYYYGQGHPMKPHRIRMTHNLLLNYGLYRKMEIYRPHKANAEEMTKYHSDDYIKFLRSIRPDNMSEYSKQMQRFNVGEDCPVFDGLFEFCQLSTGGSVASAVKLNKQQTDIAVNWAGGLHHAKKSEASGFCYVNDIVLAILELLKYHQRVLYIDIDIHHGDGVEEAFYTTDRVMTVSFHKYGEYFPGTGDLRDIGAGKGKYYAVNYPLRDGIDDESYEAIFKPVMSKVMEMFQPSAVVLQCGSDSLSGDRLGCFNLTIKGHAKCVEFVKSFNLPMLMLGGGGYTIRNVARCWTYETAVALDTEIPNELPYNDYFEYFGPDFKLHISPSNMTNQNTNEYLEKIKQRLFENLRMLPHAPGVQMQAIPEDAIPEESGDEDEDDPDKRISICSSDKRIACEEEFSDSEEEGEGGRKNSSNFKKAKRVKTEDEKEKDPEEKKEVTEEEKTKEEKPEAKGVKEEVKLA

FC(F)c1nnc(-c2ccc(Cn3cc(-c4ccc5cn[nH]c5c4)nn3)nc2)o1 [Compound 4340, 2-(6-((4-(1H-indazol-6-yl)-1H-1,2,3-triazol-1-yl)methyl)pyridin-3-yl)-5-(difluoromethyl)-1,3,4-oxadiazole]
IC50 [1]: > 50000 nM
HDAC6 selectivity (fold) [2]: 7575 fold
IC50 [2]: 6.6 nM

FC(F)c1nnc(-c2ccc(Cn3cc(-c4ccc5[nH]ncc5c4)nn3)nc2)o1 [Compound 4343, 2-(6-((4-(1H-indazol-5-yl)-1H-1,2,3-triazol-1-yl)methyl)pyridin-3-yl)-5-(difluoromethyl)-1,3,4-oxadiazole]
IC50 [1]: > 50000 nM
HDAC6 selectivity (fold) [2]: 5882 fold
IC50 [2]: 8.5 nM

CC(C)(F)CN1CCC(c2cccc(-c3cn(Cc4ccc(-c5nnc(C(F)F)o5)cc4F)nn3)c2)CC1 [Compound 4349, 2-(difluoromethyl)-5-(3-fluoro-4-((4-(3-(1-(2-fluoro-2-methylpropyl)piperidin-4-yl)phenyl)-1H-1,2,3-triazol-1-yl)methyl)phenyl)-1,3,4-oxadiazole]
IC50 [1]: > 50000 nM
HDAC6 selectivity (fold) [2]: 137 fold
IC50 [2]: 363 nM

CCC(F)(CC)CN1CCC(c2cccc(-c3cn(Cc4ccc(-c5nnc(C(F)F)o5)cc4F)nn3)c2)CC1 [Compound 4350, 2-(difluoromethyl)-5-(4-((4-(3-(1-(2-ethyl-2-fluorobutyl)piperidin-4-yl)phenyl)-1H-1,2,3-triazol-1-yl)methyl)-3-fluorophenyl)-1,3,4-oxadiazole]
IC50 [1]: > 50000 nM
HDAC6 selectivity (fold) [2]: 82 fold
IC50 [2]: 605 nM

CN(C)C(C)(C)C(=O)Nc1cccc(-c2cn(Cc3ccc(-c4nnc(C(F)F)o4)cc3)nn2)c1 [Compound 4351, N-(3-(1-(4-(5-(difluoromethyl)-1,3,4-oxadiazol-2-yl)benzyl)-1H-1,2,3-triazol-4-yl)phenyl)-2-(dimethylamino)-2-methylpropanamide]
IC50 [1]: > 50000 nM
HDAC6 selectivity (fold) [2]: 1193 fold
IC50 [2]: 41.9 nM

CN(C)CC(=O)Nc1cccc(-c2cn(Cc3ccc(-c4nnc(C(F)F)o4)cc3F)nn2)c1 [Compound 4352, N-(3-(1-(4-(5-(difluoromethyl)-1,3,4-oxadiazol-2-yl)-2-fluorobenzyl)-1H-1,2,3-triazol-4-yl)phenyl)-2-(dimethylamino)acetamide]
IC50 [1]: > 50000 nM
HDAC6 selectivity (fold) [2]: 1562 fold
IC50 [2]: 33.2 nM

CN(C)C(C)(C)C(=O)Nc1cccc(-c2cn(Cc3ccc(-c4nnc(C(F)F)o4)cc3F)nn2)c1 [Compound 4353]
IC50 [1]: > 50000 nM
HDAC6 selectivity (fold) [2]: 1201 fold
IC50 [2]: 41.6 nM

CN1CCc2cc(-c3cn(Cc4ccc(-c5nnc(C(F)F)o5)cc4F)nn3)ccc2C1 [Compound 4358, 2-(difluoromethyl)-5-(3-fluoro-4-((4-(2-methyl-1,2,3,4-tetrahydroisoquinolin-6-yl)-1H-1,2,3-triazol-1-yl)methyl)phenyl)-1,3,4-oxadiazole]
IC50 [1]: > 50000 nM
HDAC6 selectivity (fold) [2]: 1515 fold
IC50 [2]: 33 nM

CCN1CCc2cc(-c3cn(Cc4ccc(-c5nnc(C(F)F)o5)cc4F)nn3)ccc2C1 [Compound 4359, 2-(difluoromethyl)-5-(4-((4-(2-ethyl-1,2,3,4-tetrahydroisoquinolin-6-yl)-1H-1,2,3-triazol-1-yl)methyl)-3-fluorophenyl)-1,3,4-oxadiazole]
IC50 [1]: > 50000 nM
HDAC6 selectivity (fold) [2]: 1182 fold
IC50 [2]: 42.3 nM

CC(C)N1CCc2cc(-c3cn(Cc4ccc(-c5nnc(C(F)F)o5)cc4F)nn3)ccc2C1 [Compound 4360, 2-(difluoromethyl)-5-(3-fluoro-4-((4-(2-isopropyl-1,2,3,4-tetrahydroisoquinolin-6-yl)-1H-1,2,3-triazol-1-yl)methyl)phenyl)-1,3,4-oxadiazole]
IC50 [1]: > 50000 nM
HDAC6 selectivity (fold) [2]: 881 fold
IC50 [2]: 56.7 nM

Fc1cc(-c2nnc(C(F)F)o2)ccc1Cn1cc(-c2ccc3c(c2)CCN(C2COC2)C3)nn1 [Compound 4362, 2-(difluoromethyl)-5-(3-fluoro-4-((4-(2-(oxetan-3-yl)-1,2,3,4-tetrahydroisoquinolin-6-yl)-1H-1,2,3-triazol-1-yl)methyl)phenyl)-1,3,4-oxadiazole]
IC50 [1]: > 50000 nM
HDAC6 selectivity (fold) [2]: 762 fold
IC50 [2]: 65.6 nM

CN1CCc2ccc(-c3cn(Cc4ccc(-c5nnc(C(F)F)o5)cc4F)nn3)cc2C1 [Compound 4363, 2-(difluoromethyl)-5-(3-fluoro-4-((4-(2-methyl-1,2,3,4-tetrahydroisoquinolin-7-yl)-1H-1,2,3-triazol-1-yl)methyl)phenyl)-1,3,4-oxadiazole]
IC50 [1]: > 50000 nM
HDAC6 selectivity (fold) [2]: 1385 fold
IC50 [2]: 36.1 nM

CCN1CCc2ccc(-c3cn(Cc4ccc(-c5nnc(C(F)F)o5)cc4F)nn3)cc2C1 [Compound 4364, 2-(difluoromethyl)-5-(4-((4-(2-ethyl-1,2,3,4-tetrahydroisoquinolin-7-yl)-1H-1,2,3-triazol-1-yl)methyl)-3-fluorophenyl)-1,3,4-oxadiazole]
IC50 [1]: > 50000 nM
HDAC6 selectivity (fold) [2]: 1160 fold
IC50 [2]: 43.1 nM

CC(C)N1CCc2ccc(-c3cn(Cc4ccc(-c5nnc(C(F)F)o5)cc4F)nn3)cc2C1 [Compound 4365, 2-(difluoromethyl)-5-(3-fluoro-4-((4-(2-isopropyl-1,2,3,4-tetrahydroisoquinolin-7-yl)-1H-1,2,3-triazol-1-yl)methyl)phenyl)-1,3,4-oxadiazole]
IC50 [1]: > 50000 nM
HDAC6 selectivity (fold) [2]: 1089 fold
IC50 [2]: 45.9 nM

Fc1cc(-c2nnc(C(F)F)o2)ccc1Cn1cc(-c2ccc3c(c2)CN(C2COC2)CC3)nn1 [Compound 4367, 2-(difluoromethyl)-5-(3-fluoro-4-((4-(2-(oxetan-3-yl)-1,2,3,4-tetrahydroisoquinolin-7-yl)-1H-1,2,3-triazol-1-yl)methyl)phenyl)-1,3,4-oxadiazole]
IC50 [1]: > 50000 nM
HDAC6 selectivity (fold) [2]: 1210 fold
IC50 [2]: 41.3 nM

CCN1CCN(c2cccc(-c3cn(Cc4ccc(-c5nnc(C(F)F)o5)cc4)nn3)c2)CC1 [Compound 4368, 2-(difluoromethyl)-5-(4-((4-(3-(4-ethylpiperazin-1-yl)phenyl)-1H-1,2,3-triazol-1-yl)methyl)phenyl)-1,3,4-oxadiazole]
IC50 [1]: > 50000 nM
HDAC6 selectivity (fold) [2]: 1533 fold
IC50 [2]: 32.6 nM

CCCN1CCN(c2cccc(-c3cn(Cc4ccc(-c5nnc(C(F)F)o5)cc4)nn3)c2)CC1 [Compound 4369, 2-(difluoromethyl)-5-(4-((4-(3-(4-propylpiperazin-1-yl)phenyl)-1H-1,2,3-triazol-1-yl)methyl)phenyl)-1,3,4-oxadiazole]
IC50 [1]: > 50000 nM
HDAC6 selectivity (fold) [2]: 912 fold
IC50 [2]: 54.8 nM

CCC(=O)N1CCN(c2cccc(-c3cn(Cc4ccc(-c5nnc(C(F)F)o5)cc4)nn3)c2)CC1 [Compound 4372, 1-(4-(3-(1-(4-(5-(difluoromethyl)-1,3,4-oxadiazol-2-yl)benzyl)-1H-1,2,3-triazol-4-yl)phenyl)piperazin-1-yl)propan-1-one]
IC50 [1]: > 50000 nM
HDAC6 selectivity (fold) [2]: 724 fold
IC50 [2]: 69 nM

CCCN1CCN(c2cccc(-c3cn(Cc4ccc(-c5nnc(C(F)F)o5)cc4F)nn3)c2)CC1 [Compound 4374, 2-(difluoromethyl)-5-(3-fluoro-4-((4-(3-(4-propylpiperazin-1-yl)phenyl)-1H-1,2,3-triazol-1-yl)methyl)phenyl)-1,3,4-oxadiazole]
IC50 [1]: > 50000 nM
HDAC6 selectivity (fold) [2]: 228 fold
IC50 [2]: 21.9 nM

Fc1cc(-c2nnc(C(F)F)o2)ccc1Cn1cc(-c2cccc(N3CCN(C4CCC4)CC3)c2)nn1 [Compound 4376, 2-(4-((4-(3-(4-cyclobutylpiperazin-1-yl)phenyl)-1H-1,2,3-triazol-1-yl)methyl)-3-fluorophenyl)-5-(difluoromethyl)-1,3,4-oxadiazole]
IC50 [1]: > 50000 nM
HDAC6 selectivity (fold) [2]: 1094 fold
IC50 [2]: 45.7 nM

Source: US20230257372A1 (CHONG KUN DANG PHARMACEUTICAL CORP., priority 2020, published 2023)
